From PubChem BioAssay AID1963866 (Molecular Pharmacology Branch, DTP, NCI, 2024)

System: PDC KRAS tumor spheroids with HUVEC/MSC, viability
Experiment: Anticancer human tumor 349418-098-R-PDC patient-derived lung adenocarcinoma cell line growth inhibition [KRAS2]
Conditions: for IC50: curve of first compound; for viability, T/C: stronger effect = lower value
Excerpt: Multicellular complex tumor spheroid response to RAS pathway inhibitors in combination with a targeted agents in patient-derived cell lines with oncogenic KRAS variants from multiple cancer types
A high-throughput screen of multi-cell type tumor spheroids was designed to identify active combinations of targeted small molecules and KRAS pathway inhibitors. Complex spheroids include a stromal component modeled by human endothelial cells (HUVEC) and fibroblasts modeled by human mesenchymal stem cells (MSCs). The concentration ranges selected for each drug and investigational agent were based upon clinically achievable concentrations if the clinical Cmax of the agent was known.
Compounds. The drugs and investigational agents: BI-3406 (NSC825286), BAY-293 (NSC824723), batoprotafib (TNO155; NSC825523), sotorasib (AMG 510; NSC818433), MRTX1257 (NSC819558), elimusertib (BAY 1895344; NSC800525), molibresib (GSK525762; NSC774829), temuterkib (LY3214996; NSC803410), venetoclax (NSC766270), alisertib (NSC759677), olaparib (NSC753686), talazoparib (NSC767125), erdafitinib (NSC781556), ipatasertib (NSC767898), cabozantinib (NSC761068), nintedanib (NSC756659), abemaciclib (NSC768073), docetaxel (NSC628503), trametinib (NSC758246), and sapanisertib (NSC764658) were obtained from the National Cancer Institute (NCI) Developmental Therapeutics Program Chemical Repository. The FDA-approved anticancer drug set is available from the Developmental Therapeutics Program. […] The stock solutions were prepared in dimethyl sulfoxide (DMSO, Sigma-Aldrich, St. Louis, MO, cat. D2650) at 800-fold the tested concentration and stored at -70 degrees C prior to their use. All drugs and investigational agents were tested over a range starting from a high concentration at or near the clinical Cmax and decreasing in half-log increments. If the clinical Cmax for an agent had not been determined, the highest concentration tested was 10 microM.
Cell Culture. All cells were maintained in an incubator at 37 degrees C and 5% CO2 with 95% humidity. The PDC lines were cultured according to standard operating procedures established by the NCI PDMR (https://pdmr.cancer.gov/sops/default.htm). Briefly, all PDCs were thawed and cultured in Matrigel-coated flasks prepared with a working solution of 1X Ham's F-12 nutrient mix, without supplementation (Invitrogen, Waltham, MA, cat. 11765054), 100 U/mL penicillin-streptomycin (Invitrogen, cat. 15140122), and 2.5% Matrigel (Corning Inc., Corning, NY, cat. 354248) for the first three passages. All PDCs were cultured in complete DMEM/F-12 media containing advanced DMEM/F-12 (Invitrogen, cat. 12634028), 4.9% defined fetal bovine serum, heat inactivated (HyClone Laboratories Inc., Logan, UT, cat. SH30070.03HI), 389 ng/mL hydrocortisone (Sigma-Aldrich, cat. H4001), 9.7 ng/mL human EGF recombinant protein (Invitrogen, cat. PHG0313), 23.4 microg/mL adenine (Sigma-Aldrich, cat. A2786), 97.3 U/mL penicillin-streptomycin (Invitrogen, cat. 15140122), 1.9 mM L-glutamine (Invitrogen, cat. 25030081), and 9.7 microM Y-27632 dihydrochloride (Tocris Bioscience, Bristol, United Kingdom, cat. 1254). The PDCs were cultured in complete DMEM/F12 media without 9.7 microM Y-27632 dihydrochloride for at least two passages prior to the screen. The established cell line HOP-62 was cultured in RPMI 1640 medium, HEPES (Invitrogen, cat. 22400105) with 10% defined fetal bovine serum (HyClone Laboratories Inc., cat. SH30070.03) and 2 mM L-glutamine (Invitrogen, cat. 25030081). The pooled donor HUVEC were cultured in endothelial cell growth medium 2 (PromoCell, Heidelberg, Germany, cat. C-22011) and the hMSC were cultured in mesenchymal stem cell growth medium 2 (PromoCell, cat. C-28009). For all experiments, HUVEC and hMSC were used at passages </=5, while the malignant cell lines were used at passages </=15. […]

[1] = second compound 0.1 µM, first compound 0.0316 µM
[2] = second compound 0.1 µM, first compound 0.1 µM
[3] = second compound 0.1 µM, first compound 0.316 µM
[4] = second compound 0.1 µM, first compound 1 µM
[5] = second compound 0.1 µM, first compound 3.16 µM
[6] = second compound 0.316 µM, first compound 0.0316 µM
[7] = second compound 0.316 µM, first compound 0.1 µM
[8] = second compound 0.316 µM, first compound 0.316 µM
[9] = second compound 0.316 µM, first compound 1 µM
[10] = second compound 0.316 µM, first compound 3.16 µM
[11] = second compound 1 µM, first compound 0.0316 µM
[12] = second compound 1 µM, first compound 0.1 µM
[13] = second compound 1 µM, first compound 0.316 µM
[14] = second compound 1 µM, first compound 1 µM
[15] = second compound 1 µM, first compound 3.16 µM
[16] = second compound 3.16 µM, first compound 0.0316 µM
[17] = second compound 3.16 µM, first compound 0.1 µM
[18] = second compound 3.16 µM, first compound 0.316 µM
[19] = second compound 3.16 µM, first compound 1 µM
[20] = second compound 3.16 µM, first compound 3.16 µM
[21] = second compound 10 µM, first compound 0.0316 µM
[22] = second compound 10 µM, first compound 0.1 µM
[23] = second compound 10 µM, first compound 0.316 µM
[24] = second compound 10 µM, first compound 1 µM
[25] = second compound 10 µM, first compound 3.16 µM
[26] = second compound 0.1 µM, first compound 10 µM
[27] = second compound 0.316 µM, first compound 10 µM
[28] = second compound 1 µM, first compound 10 µM
[29] = second compound 3.16 µM, first compound 10 µM
[30] = second compound 10 µM, first compound 10 µM
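Further: spheroids exposed to compounds for seven days before readout.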

Compound: CC1COCCN1c1cc(-c2ccnn2C)c2ccnc(-c3ccn[nH]3)c2n1 (stereo not given) + C=CC(=O)N1CCN(c2nc(=O)n(-c3c(C)ccnc3C(C)C)c3nc(-c4c(O)cccc4F)c(F)cc23)C(C)C1
- IC50 (second compound 0.1 µM): 27.4 nM
- IC50 (second compound 0.316 µM): 26.4 nM
- IC50 (second compound 1 µM): 27.1 nM
- IC50 (second compound 3.16 µM): 15.4 nM
- IC50 (second compound 10 µM): < 10 nM
- viability, T/C (second compound 0.1 µM, first compound 0.01 µM): 76.3%
- viability, T/C [1]: 46.3%
- viability, T/C [2]: 9.21%
- viability, T/C [3]: 6.2%
- viability, T/C [4]: 4.48%
- viability, T/C [5]: 4.43%
- viability, T/C (second compound 0.316 µM, first compound 0.01 µM): 117%
- viability, T/C [6]: 37.7%
- viability, T/C [7]: 8.7%
- viability, T/C [8]: 4.96%
- viability, T/C [9]: 4.36%
- viability, T/C [10]: 4.34%
- viability, T/C (second compound 1 µM, first compound 0.01 µM): 101%
- viability, T/C [11]: 42%
- viability, T/C [12]: 7.61%
- viability, T/C [13]: 5.66%
- viability, T/C [14]: 4.24%
- viability, T/C [15]: 4.16%
- viability, T/C (second compound 3.16 µM, first compound 0.01 µM): 69%
- viability, T/C [16]: 18.1%
- viability, T/C [17]: 6.37%
- viability, T/C [18]: 4.8%
- viability, T/C [19]: 4.05%
- viability, T/C [20]: 4.49%
- viability, T/C (second compound 10 µM, first compound 0.01 µM): 21.2%
- viability, T/C [21]: 5.73%
- viability, T/C [22]: 4.31%
- viability, T/C [23]: 4.56%
- viability, T/C [24]: 4.61%
- viability, T/C [25]: 4.96%

Compound: CC1OCC2(CCN(c3cnc(Sc4ccnc(N)c4Cl)c(N)n3)CC2)C1N (stereo not given) + C=CC(=O)N1CCN(c2nc(=O)n(-c3c(C)ccnc3C(C)C)c3nc(-c4c(O)cccc4F)c(F)cc23)C(C)C1
- IC50 (second compound 0.1 µM): > 10000 nM
- IC50 (second compound 0.316 µM): > 10000 nM
- IC50 (second compound 1 µM): > 10000 nM
- IC50 (second compound 3.16 µM): > 10000 nM
- IC50 (second compound 10 µM): < 31.6 nM
- viability, T/C [1]: 109%
- viability, T/C [2]: 79.5%
- viability, T/C [3]: 110%
- viability, T/C [4]: 90%
- viability, T/C [5]: 76%
- viability, T/C [26]: 74.5%
- viability, T/C [6]: 87.3%
- viability, T/C [7]: 94.9%
- viability, T/C [8]: 90.2%
- viability, T/C [9]: 100%
- viability, T/C [10]: 96.4%
- viability, T/C [27]: 78.5%
- viability, T/C [11]: 82%
- viability, T/C [12]: 106%
- viability, T/C [13]: 96.3%
- viability, T/C [14]: 78.6%
- viability, T/C [15]: 95.5%
- viability, T/C [28]: 73.8%
- viability, T/C [16]: 70.2%
- viability, T/C [17]: 71.1%
- viability, T/C [18]: 72.6%
- viability, T/C [19]: 63.2%
- viability, T/C [20]: 68%
- viability, T/C [29]: 60.2%
- viability, T/C [21]: 30.3%
- viability, T/C [22]: 33.1%
- viability, T/C [23]: 23.9%
- viability, T/C [24]: 25%
- viability, T/C [25]: 28%
- viability, T/C [30]: 21.9%

Compound: CCNC(=O)CC1N=C(c2ccc(Cl)cc2)c2cc(OC)ccc2-n2c(C)nnc21 (stereo not given) + C=CC(=O)N1CCN(c2nc(=O)n(-c3c(C)ccnc3C(C)C)c3nc(-c4c(O)cccc4F)c(F)cc23)C(C)C1
- IC50 (second compound 0.1 µM): 133 nM
- IC50 (second compound 0.316 µM): 139 nM
- IC50 (second compound 1 µM): 185 nM
- IC50 (second compound 3.16 µM): 140 nM
- IC50 (second compound 10 µM): < 31.6 nM
- viability, T/C [1]: 84.2%
- viability, T/C [2]: 55.5%
- viability, T/C [3]: 31.9%
- viability, T/C [4]: 11.2%
- viability, T/C [5]: 1.81%
- viability, T/C [26]: 0.76%
- viability, T/C [6]: 83%
- viability, T/C [7]: 54%
- viability, T/C [8]: 37%
- viability, T/C [9]: 11.2%
- viability, T/C [10]: 1.1%
- viability, T/C [27]: 0.76%
- viability, T/C [11]: 78.3%
- viability, T/C [12]: 60.4%
- viability, T/C [13]: 41.4%
- viability, T/C [14]: 6.68%
- viability, T/C [15]: 2.48%
- viability, T/C [28]: 0.75%
- viability, T/C [16]: 69.9%
- viability, T/C [17]: 52.9%
- viability, T/C [18]: 37.9%
- viability, T/C [19]: 9.47%
- viability, T/C [20]: 2.07%
- viability, T/C [29]: 0.56%
- viability, T/C [21]: 44.4%
- viability, T/C [22]: 28.8%
- viability, T/C [23]: 6.81%
- viability, T/C [24]: 2.7%
- viability, T/C [25]: 1.1%
- viability, T/C [30]: 0.62%

Compound: Cn1nccc1Nc1nccc(-c2cc3c(s2)C(C)(C)N(CCN2CCOCC2)C3=O)n1 + C=CC(=O)N1CCN(c2nc(=O)n(-c3c(C)ccnc3C(C)C)c3nc(-c4c(O)cccc4F)c(F)cc23)C(C)C1
- IC50 (second compound 0.1 µM): 85.5 nM
- IC50 (second compound 0.316 µM): 64.3 nM
- IC50 (second compound 1 µM): 67.6 nM
- IC50 (second compound 3.16 µM): 37.4 nM
- IC50 (second compound 10 µM): < 31.6 nM
- viability, T/C [1]: 75.7%
- viability, T/C [2]: 46.1%
- viability, T/C [3]: 23.6%
- viability, T/C [4]: 13.3%
- viability, T/C [5]: 10.8%
- viability, T/C [26]: 7.2%
- viability, T/C [6]: 72.4%
- viability, T/C [7]: 29.5%
- viability, T/C [8]: 30.2%
- viability, T/C [9]: 18.7%
- viability, T/C [10]: 12.2%
- viability, T/C [27]: 7.24%
- viability, T/C [11]: 64.9%
- viability, T/C [12]: 39.1%
- viability, T/C [13]: 33.6%
- viability, T/C [14]: 18.3%
- viability, T/C [15]: 13.3%
- viability, T/C [28]: 9.7%
- viability, T/C [16]: 53%
- viability, T/C [17]: 34.9%
- viability, T/C [18]: 25.7%
- viability, T/C [19]: 16.5%
- viability, T/C [20]: 9.89%
- viability, T/C [29]: 8.92%
- viability, T/C [21]: 32.6%
- viability, T/C [22]: 19.6%
- viability, T/C [23]: 16.1%
- viability, T/C [24]: 13.9%
- viability, T/C [25]: 9.06%
- viability, T/C [30]: 6.64%
